This is an account of results in patent US11787780B2 (CORCEPT THERAPEUTICS INCORPORATED, priority 2020, dated 2023).

For the assay, the system named is induction of TAT by dexamethasone in HepG2 cells. Briefly: Hep G2 TAT assay (inhibition of dexamethasone-induced TAT). As to conditions: challenge of 100 nM dexamethasone, IC50 converted to Ki by Cheng and Prusoff equation. In kind it is cell-based, human. The procedure:
Glucocorticoid mediated activation of TAT occurs by transactivation of glucocorticoid response elements in the TAT promoter by glucocorticoid receptor-agonist complex. The following protocol describes an assay for measuring induction of TAT by dexamethasone in HepG2 cells (a human liver hepatocellular carcinoma cell line; ECACC, UK).
TAT activity was measured as outlined in the literature by A. Ah et al., J. Med. Chem., 2004, 47, 2441-2452.
HepG2 cells were cultured using MEME media supplemented with 10% (v/v) foetal bovine serum; 2 mM L-glutamine and 1% (v/v) NEAA at 37° C., 5%/95% (v/v) CO2/air. The HepG2 cells were counted and adjusted to yield a density of 0.125×10^6 cells/ml in RPMI 1640 without phenol red, 10% (v/v) charcoal stripped FBS, 2 mM L-glutamine and seeded at 25,000 cells/well in 200 μl into 96 well, sterile, tissue culture micro titre plates, and incubated at 37° C., 5% CO2 for 24 hours
Growth media was removed and replaced with assay media {RPMI 1640 without phenol red, 2 mM L-glutamine+10 μM forskolin}. Test compounds were screened against a challenge of 100 nM dexamethasone. Compounds were serially half log diluted in 100% (v/v) dimethylsulphoxide from a 10 mM stock.
Test compounds were pre-incubated with cells in micro-titre plates for 30 minutes at 37° C., 5/95 (v/v) CO2/air, before the addition of 100 nM dexamethasone and then subsequently for 20 hours to allow optimal TAT induction.
HepG2 cells were then lysed with 30 μl of cell lysis buffer containing a protease inhibitor cocktail for 15 minutes at 4° C. […] After 2 hours incubation at 37° C. the reaction was terminated by the addition of 15 μl of 10M aqueous potassium hydroxide solution, and the plates incubated for a further 30 minutes at 37° C. The TAT activity product was measured by absorbance at λ 340 nm.
[compound] and fitting the data to a 4 parameter logistic equation. IC50 values were converted to Ki (equilibrium dissociation constant) using the Cheng and Prusoff equation, assuming the antagonists were competitive inhibitors with respect to dexamethasone.

SMILES strings stand for the structures.

The Ki is the equilibrium dissociation constant of an inhibitor or competing ligand from its target. Low values mean a stronger hold on the target, high ones a looser hold on the target. `Cc1cc2c(cnn2-c2ccc(F)cc2)cc1C1(Cc2ccccc2)CCN(C(=O)Cc2csc3ccccc23)C1` (stereo not shown) [Example 202, 2-(benzo[b]thiophen-3-yl)-1-(3-benzyl-3-(1-(4-fluorophenyl)-6-methyl-1H-indazol-5-yl)pyrrolidin-1-yl)ethan-1-one] gave a Ki of 67 nM. That is a double-digit nanomolar value.

The compound `Cc1cc2c(cnn2-c2ccc(F)cc2)cc1C1(Cc2ccccc2)CCN(C(=O)c2ccsc2)C1` (stereo not shown) [Example 203, (3-benzyl-3-(1-(4-fluorophenyl)-6-methyl-1H-indazol-5-yl)pyrrolidin-1-yl)(thiophen-3-yl)methanone] returned a Ki of 21 nM.

On to `Cc1cc2c(cnn2-c2ccc(F)cc2)cc1C1(Cc2ccccc2)CCN(S(=O)(=O)c2cn(C)cn2)C1` (stereo not shown) [Example 210, 5-(3-benzyl-1-((1-methyl-1H-imidazol-4-yl)sulfonyl)pyrrolidin-3-yl)-1-(4-fluorophenyl)-6-methyl-1H-indazole], for which the affinity corresponds to a Ki of 41 nM.

Compound `Cc1cc2c(cnn2-c2ccc(F)cc2)cc1C1(CC#Cc2ccccc2)CCN(S(=O)(=O)c2cnn(C)c2)C1` (stereo not shown) [Example 211, 1-(4-fluorophenyl)-6-methyl-5-(1-((1-methyl-1H-pyrazol-4-yl)sulfonyl)-3-(3-phenylprop-2-yn-1-yl)pyrrolidin-3-yl)-1H-indazole] gave a Ki of 47 nM.

Take `COc1cc2c(cnn2-c2ccc(F)cc2)cc1C1(Cc2ccc(F)cc2)CCN(S(=O)(=O)c2cn(C)cn2)C1` (stereo not shown) [Example 216, 5-(3-(4-fluorobenzyl)-1-((1-methyl-1H-imidazol-4-yl)sulfonyl)pyrrolidin-3-yl)-1-(4-fluorophenyl)-6-methoxy-1H-indazole]: affinity was put at a Ki of 53 nM.

In the case of `COc1cc2c(cnn2-c2ccc(F)cc2)cc1C1(Cc2ccc(F)cc2)CCN(S(=O)(=O)C2CC2)C1` (stereo not shown) [Example 220, 5-(1-(cyclopropylsulfonyl)-3-(4-fluorobenzyl)pyrrolidin-3-yl)-1-(4-fluorophenyl)-6-methoxy-1H-indazole], the affinity, expressed as Ki, was 24 nM.

Compound `CCCn1cc(S(=O)(=O)N2CCC(Cc3ccccc3)(c3cc4cnn(-c5ccc(F)cc5)c4cc3Cl)C2)cn1` (stereo not shown) [Example 224, 5-(3-benzyl-1-((1-propyl-1H-pyrazol-4-yl)sulfonyl)pyrrolidin-3-yl)-6-chloro-1-(4-fluorophenyl)-1H-indazole] came in with a Ki of 21 nM.

In turn, `Cc1ncc(CC2(c3cc4cnn(-c5ccc(F)cc5)c4cc3C)CCN(S(=O)(=O)c3cnn(C)c3)C2)s1` (stereo not shown) [Example 227, 5-((3-(1-(4-fluorophenyl)-6-methyl-1H-indazol-5-yl)-1-((1-methyl-1H-pyrazol-4-yl)sulfonyl)pyrrolidin-3-yl)methyl)-2-methylthiazole] gave a Ki of 350 nM. This Ki lies about 17-fold higher than the previous one.

In turn, `O=C1CC(Cc2ccccc2)(c2cc3cnn(-c4ccc(F)cc4)c3cc2Cl)C(=O)N1Cc1ccccc1` (stereo not shown) [Example 228, 1,3-dibenzyl-3-(6-chloro-1-(4-fluorophenyl)-1H-indazol-5-yl)pyrrolidine-2,5-dione] returned a Ki of 28 nM.

`Cc1cc2c(cnn2-c2ccc(F)cc2)cc1C1(Cc2ccccc2)CCN(C(=O)c2csc(C(F)(F)F)n2)C1` (stereo not shown) [Example 229, (3-benzyl-3-(1-(4-fluorophenyl)-6-methyl-1H-indazol-5-yl)pyrrolidin-1-yl)(2-(trifluoromethyl)thiazol-4-yl)methanone] came in with an inhibition constant Ki of 210 nM.

Consider `COc1cc2c(cnn2-c2ccc(F)cc2)cc1C1(Cc2ccccc2)CCN(C(=O)c2cscn2)C1` (stereo not shown) [Example 230, (3-benzyl-3-(1-(4-fluorophenyl)-6-methoxy-1H-indazol-5-yl)pyrrolidin-1-yl)(thiazol-4-yl)methanone], for which the Ki stood at 74 nM. This Ki is about 2.8-fold lower than that of the compound before.

`Cc1ncc(CC2(c3cc4cnn(-c5ccc(F)cc5)c4cc3C)CCN(C(=O)c3ccccc3)C2)s1` (stereo not shown) [Example 234, (3-(1-(4-fluorophenyl)-6-methyl-1H-indazol-5-yl)-3-((2-methylthiazol-5-yl)methyl)pyrrolidin-1-yl)(phenyl)methanone] had a Ki of 150 nM.

The compound `COc1ccc(-n2ncc3cc(C4(Cc5ccccc5)CCN(S(=O)(=O)c5cnn(C)n5)C4)c(C)cc32)cn1` (stereo not shown) [Example 236, 5-(3-benzyl-1-((2-methyl-2H-1,2,3-triazol-4-yl)sulfonyl)pyrrolidin-3-yl)-1-(6-methoxypyridin-3-yl)-6-methyl-1H-indazole] gave a Ki of 81 nM. Against the preceding compound, the Ki is about 1.9-fold lower.

`Cc1cc2c(cnn2-c2cccnc2)cc1C1(Cc2ccccc2)CCN(S(=O)(=O)c2cnn(C)n2)C1` (stereo not shown) [Example 238, 5-(3-benzyl-1-((2-methyl-2H-1,2,3-triazol-4-yl)sulfonyl)pyrrolidin-3-yl)-6-methyl-1-(pyridin-3-yl)-1H-indazole] gave a Ki of 64 nM.

In turn, `Cc1cc(-n2ncc3cc(C4(Cc5ccccc5)CCN(S(=O)(=O)c5cnn(C)n5)C4)c(C)cc32)ccn1` (stereo not shown) [Example 240, 5-(3-benzyl-1-((2-methyl-2H-1,2,3-triazol-4-yl)sulfonyl)pyrrolidin-3-yl)-6-methyl-1-(2-methylpyridin-4-yl)-1H-indazole] yielded a Ki of 73 nM.

For `Cc1cc2c(cnn2-c2cccc(C#N)c2)cc1C1(Cc2ccccc2)CCN(S(=O)(=O)c2cnn(C)n2)C1` (stereo not shown) [Example 241, 3-(5-(3-benzyl-1-((2-methyl-2H-1,2,3-triazol-4-yl)sulfonyl)pyrrolidin-3-yl)-6-methyl-1H-indazol-1-yl)benzonitrile], the Ki turned out to be 44 nM.

As for `Cc1cc2c(cnn2-c2ccn(C)c(=O)c2)cc1C1(Cc2ccccc2)CCN(S(=O)(=O)c2cnn(C)n2)C1` (stereo not shown) [Example 244, 4-(5-(3-benzyl-1-((2-methyl-2H-1,2,3-triazol-4-yl)sulfonyl)pyrrolidin-3-yl)-6-methyl-1H-indazol-1-yl)-1-methylpyridin-2(1H)-one], the affinity, expressed as Ki, was 840 nM.

As to `Cc1cc2c(cnn2-c2cc(C#N)c(=O)n(C)c2)cc1C1(Cc2ccccc2)CCN(S(=O)(=O)c2cnn(C)n2)C1` (stereo not shown) [Example 245, 5-(5-(3-benzyl-1-((2-methyl-2H-1,2,3-triazol-4-yl)sulfonyl)pyrrolidin-3-yl)-6-methyl-1H-indazol-1-yl)-1-methyl-2-oxo-1,2-dihydropyridine-3-carbonitrile], the Ki came out at 190 nM.

Take `CCn1cc(-n2ncc3cc(C4(Cc5ccccc5)CCN(S(=O)(=O)c5cnn(C)n5)C4)c(C)cc32)ccc1=O` (stereo not shown) [Example 268, 5-(5-(3-benzyl-1-((2-methyl-2H-1,2,3-triazol-4-yl)sulfonyl)pyrrolidin-3-yl)-6-methyl-1H-indazol-1-yl)-1-ethylpyridin-2(1H)-one]: the affinity corresponds to a Ki of 160 nM. The Ki values of the last two compounds are within 1.5-fold of each other.

Compound `Cc1cc2c(cnn2-c2ccc(=O)n(C(C)C)c2)cc1C1(Cc2ccccc2)CCN(S(=O)(=O)c2cnn(C)n2)C1` (stereo not shown) [Example 269, 5-(5-(3-benzyl-1-((2-methyl-2H-1,2,3-triazol-4-yl)sulfonyl)pyrrolidin-3-yl)-6-methyl-1H-indazol-1-yl)-1-isopropylpyridin-2(1H)-one] showed a Ki of 1300 nM.

Turning to `Cc1cc2c(cnn2-c2ccc(=O)n(C3CC3)c2)cc1C1(Cc2ccccc2)CCN(S(=O)(=O)c2cnn(C)n2)C1` (stereo not shown) [Example 270, 5-(5-(3-benzyl-1-((2-methyl-2H-1,2,3-triazol-4-yl)sulfonyl)pyrrolidin-3-yl)-6-methyl-1H-indazol-1-yl)-1-cyclopropylpyridin-2(1H)-one], the affinity, expressed as Ki, was 600 nM.

In the case of `CCCn1cc(S(=O)(=O)N2CCC(Cc3ccccc3)(c3cc4cnn(C5CCC(=O)N(C)C5)c4cc3C)C2)cn1` (stereo not shown) [Example 273, 5-(5-(3-benzyl-1-((1-propyl-1H-pyrazol-4-yl)sulfonyl)pyrrolidin-3-yl)-6-methyl-1H-indazol-1-yl)-1-methylpiperidin-2-one], the affinity, expressed as Ki, was 280 nM.

The compound `Cn1ncc(S(=O)(=O)N2CCC(Cc3ccccc3)(c3cc4cnn(-c5ccc(=O)n(C)c5)c4cc3Cl)C2)n1` (stereo not shown) [Example 277, 5-(5-(3-benzyl-1-((2-methyl-2H-1,2,3-triazol-4-yl)sulfonyl)pyrrolidin-3-yl)-6-chloro-1H-indazol-1-yl)-1-methylpyridin-2(1H)-one] showed a Ki of 54 nM. This Ki lies about 5.2-fold lower than the previous one.

As to `Cc1cc2c(cnn2-c2ccc(=O)n(C)c2)cc1C1(Cc2ccccc2)CCN(S(=O)(=O)c2cnn(CC(F)(F)F)c2)C1` (stereo not shown) [Example 278, 5-(5-(3-benzyl-1-((1-(2,2,2-trifluoroethyl)-1H-pyrazol-4-yl)sulfonyl)pyrrolidin-3-yl)-6-methyl-1H-indazol-1-yl)-1-methylpyridin-2(1H)-one], the Ki came to 44 nM. This Ki and that of the compound before are within 1.5-fold of each other.

Compound `Cc1cc2c(cnn2-c2ccc(=O)n(C)c2)cc1C1(Cc2ccccc2)CCN(S(=O)(=O)c2cnn(C3CCC3)c2)C1` (stereo not shown) [Example 279, 5-(5-(3-benzyl-1-((1-cyclobutyl-1H-pyrazol-4-yl)sulfonyl)pyrrolidin-3-yl)-6-methyl-1H-indazol-1-yl)-1-methylpyridin-2(1H)-one] came in with a Ki of 50 nM.
